Experimental data as given in patent publication US9018173B2, “Materials and methods for suppressing inflammatory and neuropathic pain” (Indiana University Research and Technology Corp., priority 2010, dated 2015).
Residues, ends and D or L forms follow the SMILES beside them.

What was measured:
[1] = Biodistribution after i.p. injection (dot blot, FITC fluorescence); details: 25 mg/kg i.p.
[2] = test system: CaV2.2 cytosolic loop 1 (L1) and distal C-terminus (Ct-dis); assay: Surface plasmon resonance binding to CaV2.2 L1- and Ct-dis-GST fusion proteins; parameters: species or system rat; details: peptide 1/3/5 μM
Text: (§1) In Vitro Protein Binding Assays. Using Vector NTI (v. 11; Invitrogen) software, primers were designed to amplify regions corresponding to the first cytoslic loop (L1; amino acids 356 to 483) and the distal end of the C-terminus (Ct-dis; amino acids 2133 to 2348) of rat CaV2.2 cDNA from P3 rat brain cDNA. The primers harbored restriction sites (Bam HI or Bgl II (5′) and Eco RI or Mfe I (3′)) to facilitate cloning into […]. In addition to the GST-tag, this vector contains the Glu tag, a sequence of six amino acids (EYMPME). Correctly-amplified PCR products and parent pGex-3x-Glu vector were digested with the indicated restriction enzymes, and then extracted following electrophoresis on an agarose gel. The extracted DNAs were quantified (Nanodrop 1000, Thermo Scientific), and ligations were performed using 6:1 and 3:1 insert to vector molar ratios. […]
Surface Plasmon resonance (SPR). Binding analyses between TAT CBD3 or TAT control peptides and CaV2.2 L1- or Ct-dis-GST fusion proteins was determined by surface plasmon resonance using a BIAcore3000 instrument (Biacore AB, Uppsala, Sweden). […]
Biochemistry and immunocytochemistry experiments. […] The binding between TAT CBD3 or TAT control peptides and CaV2.2 L1- or Ct-dis-GST fusion proteins was determined by surface plasmon resonance using a BIAcore3000 instrument (Biacore AB, Uppsala, Sweden).

[3] = test system: CRMP-2 binding to L1 and Ct-dis regions of CaV2.2; assay: In vitro binding of L1-GST and Ct-dis-GST fusion proteins to CRMP-2; parameters: species or system rat; details: peptides 10 μM
Text: as §1
Monoclonal Glu antibody-saturated Protein G beads (GE Healthcare) carrying various CaV2.2 cytoplasmic loop constructs were incubated with rat brain synaptosome protein in the presence of TAT control or TAT CBD3 peptides (10 μM) in a total reaction volume of 400 μl. […] The samples were then washed three times with a 1000-fold excess of binding buffer, and the proteins were eluted in 40 μl of SDS gel buffer and boiled for 5 min, after which 20 μl of each assay was run on SDS-PAGE and analyzed by immunoblotting with CRMP-2.

Compound | tissue distribution (dot blot, anti-TAT antibody) ([1]; 15 min post-injection) | tissue distribution (dot blot, anti-TAT antibody) ([1]; 1 h post-injection) | binding to immobilized L1 and Ct-dis proteins (surface plasmon resonance) [2] | interaction between CRMP-2 and L1 or Ct-dis regions of CaV2.2 [3]
CC(C)C[C@H](NC(=O)CNC(=O)[C@H](CCCNC(=N)N)NC(=O)[C@@H]1CCCN1C(=O)[C@@H](NC(=O)CNC(=O)[C@H](CCCNC(=N)N)NC(=O)[C@H](CC(C)C)NC(=O)[C@H](CCC(=O)O)NC(=O)[C@H](C)NC(=O)[C@H](CC(C)C)NC(=O)[C@H](CCCNC(=N)N)NC(=O)[C@H](CO)NC(=O)[C@H](CCCNC(=N)N)NC(=O)[C@H](C)NC(=O)[C@H](CCCNC(=N)N)NC(=O)[C@H](CCCNC(=N)N)NC(=O)[C@H](CCCNC(=N)N)NC(=O)[C@H](CCC(N)=O)NC(=O)[C@H](CCCNC(=N)N)NC(=O)[C@H](CCCNC(=N)N)NC(=O)[C@H](CCCCN)NC(=O)[C@H](CCCCN)NC(=O)[C@H](CCCNC(=N)N)NC(=O)CNC(=O)[C@@H](N)Cc1ccc(O)cc1)C(C)C)C(=O)O [TAT-CBD3] (H-YGRKKRRQRRRARSRLAELRGVPRGL-OH; N-terminus and C-terminus assumed) | detected in spleen and largely concentrated in lumbar dorsal root ganglion (DRG) and lumbar section of the spinal cord | also detected in kidney, brain, spinal cord and was abundant in the DRG |  | 
ARSRLAELRGVPRGL (CBD3) |  |  | bound to immobilized L1 and Ct-dis proteins | disrupted the interaction
